# Measured values published in US5356887A, “Pharmaceutical compositions containing insoluble calcium salts of amino-hydroxybutylidene bisphoshonic acids” (Merck & Co., Inc., priority 1993, dated 1994).
# Where a name gives a salt, the structure may show the parent alone. Read-outs that look alike come from different tables or passages of the source.
# Tests used:
# immobilized femur [1] = settings: days -4 and -3, 10 days after surgery, n = 5
# Method: On day 0 all rats underwent surgery whereby the sciatic nerve of the right hind limb was severed. Ten days following immobilization surgery, the rats were sacrificed and hind limbs removed. The femora were defleshed, maximum femoral length of both femora measured and then placed in a muffle furnace at 700° C. for 24 hours.
# (§1) mg Diff = difference in ash weight between the intact femur and the
# (§2) se = standard error of the mean
# (§3) % Bone Loss = ash weight difference between the intact femur and the
# (§4) immobilized femur divided by the ash weight of the intact femur
# rat paw = experiment: Local Irritation Study/Rat Paw Licking Response Test; settings: suspension vs solution of the (ABP)Na salt
# immobilized femur [2] = settings: days -2 and -1, 10 days after surgery, n = 5
# Method: Immobilization was produced by unilateral hind limb sciatic neurectomy. Ten days after surgery the rats were sacrificed, hind limbs removed, and the femora ashed at 700° C. for 24 hours. Ash weight was determined and the difference between the ash weight of the intact limb and immobilized limb calculated and expressed as the mg difference. Per cent difference was calculated as the % difference in ash weight between the intact and immobilized limb.
# as §1, §2, §3, §4
# [3] = in vivo
# [4] = 0.0001 mg P/kg s.c., monocalcium salt
# [5] = 0.001 mg P/kg s.c., monocalcium salt
# [6] = 0.01 mg P/kg s.c., monocalcium salt
# [7] = 0.1 mg P/kg s.c., monocalcium salt
# [8] = 2 × 0.1 mg P/kg s.c., monocalcium salt
# [9] = 2 × 1.0 mg P/kg s.c., monocalcium salt
# [10] = 0.0001 mg P/kg s.c., monosodium salt
# [11] = 0.001 mg P/kg s.c., monosodium salt
# [12] = 0.01 mg P/kg s.c., monosodium salt
# [13] = 0.1 mg P/kg s.c., monosodium salt
# [14] = 2 × 0.1 mg P/kg s.c., monosodium salt
smiles,measurement,setting,value
"NCCCC(O)(P(=O)(O)O)P(=O)(O)O [(ABP)3 Ca4, tri[(4-amino-1-hydroxybutylidene)-1,1-bisphosphonic acid] tetracalcium salt]",% Bone Loss,immobilized femur [1]; 2 × 0.1 mg P/kg s.c.,2.48%
same,mg Diff (difference in ash weight between the intact femur and the immobilized femur),immobilized femur [1]; 2 × 0.1 mg P/kg s.c.,7.68 mg
same,% Bone Loss,immobilized femur [1]; 2 × 1.0 mg P/kg s.c.,1.22%
same,mg Diff (difference in ash weight between the intact femur and the immobilized femur),immobilized femur [1]; 2 × 1.0 mg P/kg s.c.,3.94 mg
same,"Paw licking responses and tolerability, in words",rat paw,induced a lower number of responses and were better tolerated than the solution of the (ABP)Na salt
"NCCCC(O)(P(=O)(O)O)P(=O)(O)O [(ABP)Ca, [(4-amino-1-hydroxybutylidene)-1,1-bisphosphonic acid] monocalcium salt]",% Bone Loss,immobilized femur [2]; [4],9.34%
same,mg Diff (difference in ash weight between the intact femur and the immobilized femur),immobilized femur [2]; [4],28.70 mg
same,% Bone Loss,immobilized femur [2]; [5],7.69%
same,mg Diff (difference in ash weight between the intact femur and the immobilized femur),immobilized femur [2]; [5],25.98 mg
same,% Bone Loss,immobilized femur [2]; [6],5.01%
same,mg Diff (difference in ash weight between the intact femur and the immobilized femur),immobilized femur [2]; [6],16.72 mg
same,% Bone Loss,immobilized femur [2]; [7],4.12%
same,mg Diff (difference in ash weight between the intact femur and the immobilized femur),immobilized femur [2]; [7],13.24 mg
same,Systemic release of ABP,[3],slow systemic release
same,Level of the drug in the bloodstream,[3]; sc,never very high
"NCCCC(O)(P(=O)(O)O)P(=O)(O)O [(ABP)2 Ca, di[(4-amino-1-hydroxybutylidene)-1,1-bisphosphonic acid] monocalcium salt]",% Bone Loss,immobilized femur [2]; [4],8.93%
same,mg Diff (difference in ash weight between the intact femur and the immobilized femur),immobilized femur [2]; [4],29.64 mg
same,% Bone Loss,immobilized femur [2]; [5],6.58%
same,mg Diff (difference in ash weight between the intact femur and the immobilized femur),immobilized femur [2]; [5],22.00 mg
same,% Bone Loss,immobilized femur [2]; [6],3.64%
same,mg Diff (difference in ash weight between the intact femur and the immobilized femur),immobilized femur [2]; [6],12.62 mg
same,% Bone Loss,immobilized femur [2]; [7],4.14%
same,mg Diff (difference in ash weight between the intact femur and the immobilized femur),immobilized femur [2]; [7],11.32 mg
same,% Bone Loss,immobilized femur [1]; [8],1.93%
same,mg Diff (difference in ash weight between the intact femur and the immobilized femur),immobilized femur [1]; [8],6.50 mg
same,% Bone Loss,immobilized femur [1]; [9],2.09%
same,mg Diff (difference in ash weight between the intact femur and the immobilized femur),immobilized femur [1]; [9],7.38 mg
same,"Paw licking responses and tolerability, in words",rat paw,induced a lower number of responses and were better tolerated than the solution of the (ABP)Na salt
"NCCCC(O)(P(=O)(O)O)P(=O)(O)O [(ABP)Na, (4-amino-1-hydroxybutylidene)-1,1-bisphosphonic acid monosodium salt, reference compound]",% Bone Loss,immobilized femur [2]; [10],9.93%
same,mg Diff (difference in ash weight between the intact femur and the immobilized femur),immobilized femur [2]; [10],31.14 mg
same,% Bone Loss,immobilized femur [2]; [11],5.95%
same,mg Diff (difference in ash weight between the intact femur and the immobilized femur),immobilized femur [2]; [11],21.32 mg
same,% Bone Loss,immobilized femur [2]; [12],4.90%
same,mg Diff (difference in ash weight between the intact femur and the immobilized femur),immobilized femur [2]; [12],18.72 mg
same,% Bone Loss,immobilized femur [2]; [13],4.15%
same,mg Diff (difference in ash weight between the intact femur and the immobilized femur),immobilized femur [2]; [13],14.10 mg
same,% Bone Loss,immobilized femur [1]; [14],4.68%
same,mg Diff (difference in ash weight between the intact femur and the immobilized femur),immobilized femur [1]; [14],14.62 mg
same,Level of the drug in the bloodstream,[3]; iv,high level
